Data from patent US12371454B2, “Cyclic peptide compound having Kras inhibitory action” (priority 2019, dated 2025).
Positions of bridges follow the written chain, without caps; N, C: chain ends. Non-standard residues stand in square brackets, D forms with d. Residues, ends and D or L forms follow the SMILES beside them. *: point of attachment. hPhe(3-Cl-4-CF3) = N[C@@H](CCc1ccc(C(F)(F)F)c(Cl)c1)C(=O)O; hPhe(4-CF3) = N[C@@H](CCc1ccc(C(F)(F)F)cc1)C(=O)O; NMePhe(3-Br) = CN[C@@H](Cc1cccc(Br)c1)C(=O)O; NMePhe(4-Cl) = CN[C@@H](Cc1ccc(Cl)cc1)C(=O)O; NMePhe(4-Me) = CN[C@@H](Cc1ccc(C)cc1)C(=O)O; NMePhe(3-F) = CN[C@@H](Cc1cccc(F)c1)C(=O)O; NMeGly(cPent) = CN[C@H](C(=O)O)C1CCCC1; NMeCha = CN[C@@H](CC1CCCCC1)C(=O)O; NMeGly(cPr) = CN[C@H](C(=O)O)C1CC1; NMeF = CN[C@@H](Cc1ccccc1)C(=O)O; NMeI = CC[C@H](C)[C@H](NC)C(=O)O; NMeD = CN[C@@H](CC(=O)O)C(=O)O; NMeL = CN[C@@H](CC(C)C)C(=O)O; NMeV = CN[C@H](C(=O)O)C(C)C; d(β3hA) = C[C@@H](N)CC(=O)O; NMeS = CN[C@@H](CO)C(=O)O; NMeA = CN[C@@H](C)C(=O)O; NMeAib = CNC(C)(C)C(=O)O; Nle = CCCC[C@H](N)C(=O)O; Piperidide = C1CCN(*)CC1; Pyrrolidide = C1CCN(*)C1; dNMeA = CN[C@H](C)C(=O)O; Ac5c = NC1(C(=O)O)CCCC1; Aze = O=C(O)[C@@H]1CCN1; CH2CMe2OH = CC(C)(O)C*; Aib = CC(C)(N)C(=O)O; Isopentyl = CC(C)CC*; NEtG = CCNCC(=O)O; Sar = CNCC(=O)O

target: T1, Kras and SOS1 (biotin-tagged human Kras loaded with GDP, His-tagged human SOS1) (Homo sapiens, UniProt P01116, G12D); assay: Protein-protein interaction inhibition between Kras and SOS1 (KrasGl2D-SOS PPI) using AlphaScreen; format: binding; conditions: AlphaScreen; biotin-tagged human Kras loaded with GDP, His-tagged human SOS1; read-out: KRAS G12D-SOS PPI IC50
T1 construct: made in house; host or cells: E. coli (stated for Kras only)
T1 sequence (P01116 1-188 isoform P01116-2 G12D): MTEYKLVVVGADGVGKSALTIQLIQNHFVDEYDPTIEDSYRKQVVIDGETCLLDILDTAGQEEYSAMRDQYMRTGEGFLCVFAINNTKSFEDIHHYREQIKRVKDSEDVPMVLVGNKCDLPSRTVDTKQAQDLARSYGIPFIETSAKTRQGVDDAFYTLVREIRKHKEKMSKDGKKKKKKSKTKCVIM
Summary of the method: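 Read-out is acceptor-bead light at 520-620 nm, arising when 680 nm-irradiated nickel donor beads pass singlet oxygen to streptavidin acceptors. The bead pair links His-tagged SOS1 with biotin-tagged, GDP-bound Kras from E. coli.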

Going from `CCCC[C@@H]1NC(=O)[C@H](Cc2ccccc2)NC(=O)CN(C)C(=O)[C@H](Cc2ccc(Cl)cc2)N(C)C(=O)CN(C)C(=O)CN(C)C(=O)[C@H]([C@@H](C)CC)NC(=O)[C@H](CC(C)C)N(C)C(=O)C[C@@H](C(=O)N2CCCCC2)N(C)C(=O)[C@H](CC(C)C)NC(=O)C(C)(C)N(C)C1=O` [Compound 1043] ([NMeL]I[Sar][Sar][NMePhe(4-Cl)][Sar]F[Nle][NMeAib]L[NMeD]-Piperidide; lactam N-11) to `CC[C@H](C)[C@@H]1NC(=O)[C@H](C)N(C)C(=O)C[C@@H](C(=O)N2CCCC2)NC(=O)[C@H](CC(C)C)N(C)C(=O)[C@H](Cc2ccccc2)N(C)C(=O)[C@H](CC(C)C)N(C)C(=O)[C@H](CCc2ccc(C(F)(F)F)cc2)NC(=O)CN(C)C(=O)[C@H](Cc2ccc(Cl)cc2)N(C)C(=O)CN(C)C(=O)CN(C)C1=O` [Compound 199] ([NMeA]I[Sar][Sar][NMePhe(4-Cl)][Sar][hPhe(4-CF3)][NMeL][NMeF][NMeL]D-Pyrrolidide; lactam N-11), the IC50 falls from 60 nM to 36 nM (1.7-fold).

First: CC[C@H](C)[C@@H]1NC(=O)[C@H](CC(C)C)N(C)C(=O)C[C@@H](C)NC(=O)[C@H](C(C)C)N(C)C(=O)C2(CCCC2)NC(=O)[C@@H]2CCCN2C(=O)[C@H](CCc2ccc(C(F)(F)F)c(Cl)c2)NC(=O)CN(C)C(=O)[C@H](CC2CCCCC2)N(C)C(=O)[C@@H]2CCN2C(=O)[C@H](CC2CCCCC2)N(C)C1=O [Compound 1581] (cyclo([Ac5c][NMeV][d(β3hA)][NMeL]I[NMeCha][Aze][NMeCha][Sar][hPhe(3-Cl-4-CF3)]P))
Second: CC[C@H](C)[C@@H]1NC(=O)[C@H](CC(C)C)N(C)C(=O)C[C@@H](C(=O)N2CCCCC2)N(C)C(=O)[C@H](C(C)C)N(C)C(=O)C2(CCCC2)NC(=O)[C@H](C)N(C)C(=O)[C@H](CCc2ccc(C(F)(F)F)c(Cl)c2)NC(=O)CN(C)C(=O)[C@H](CC2CCCCC2)N(C)C(=O)[C@@H]2CCN2C(=O)[C@H](C)N(C)C1=O [Compound 1243] ([NMeL]I[NMeA][Aze][NMeCha][Sar][hPhe(3-Cl-4-CF3)][NMeA][Ac5c][NMeV][NMeD]-Piperidide; lactam N-11)
The IC50 of the first is 8.5-fold higher: 230 nM for the first, 27 nM for the second. The second is the more potent here.

First: CC[C@H](C)[C@@H]1NC(=O)[C@H](CC(C)C)N(C)C(=O)C[C@@H](C(=O)N(C)C)N(C)C(=O)[C@H]([C@@H](C)CC)N(C)C(=O)C2(CCCC2)NC(=O)[C@H](Cc2cccc(Br)c2)N(C)C(=O)[C@H](CCc2ccc(C(F)(F)F)c(Cl)c2)NC(=O)CN(C)C(=O)[C@H](Cc2ccc(C)cc2)N(C)C(=O)[C@@H]2CCN2C(=O)[C@H](C)N(C)C1=O [Compound 1873] ([NMeL]I[NMeA][Aze][NMePhe(4-Me)][Sar][hPhe(3-Cl-4-CF3)][NMePhe(3-Br)][Ac5c][NMeI][NMeD]-NMe2; lactam N-11)
Second: CC[C@H](C)[C@@H]1NC(=O)[C@H](CC(C)C)N(C)C(=O)C[C@@H](C(=O)N(C)C)N(C)C(=O)[C@H](C2CCCC2)N(C)C(=O)C2(CCCC2)NC(=O)[C@H](Cc2cccc(F)c2)N(C)C(=O)[C@H](CCc2ccc(C(F)(F)F)c(Cl)c2)NC(=O)CN(C)C(=O)[C@H](CC2CCCCC2)N(C)C(=O)[C@@H]2CCN2C(=O)[C@H](C)N(C)C1=O [Compound 95] ([NMeL]I[NMeA][Aze][NMeCha][Sar][hPhe(3-Cl-4-CF3)][NMePhe(3-F)][Ac5c][NMeGly(cPent)][NMeD]-NMe2; lactam N-11)
The IC50 of the first is 3-fold higher: 33 nM for the first, 11 nM for the second.

First: CC[C@H](C)[C@@H]1NC(=O)[C@H](CC(C)C)N(C)C(=O)C[C@@H](C(=O)N2CCCCC2)N(C)C(=O)[C@H](CC(C)C)N(C)C(=O)C(C)(C)NC(=O)[C@H](COCC(C)(C)O)N(C)C(=O)[C@H](CCc2ccc(C(F)(F)F)cc2)NC(=O)CN(C)C(=O)[C@H](COCCC(C)C)N(C)C(=O)CN(C)C(=O)CN(CC)C1=O [Compound 1528] ([NMeL]I[NEtG][Sar][NMeS](Isopentyl)[Sar][hPhe(4-CF3)][NMeS](CH2CMe2OH)[Aib][NMeL][NMeD]-Piperidide; lactam N-11)
Second: CC[C@H](C)[C@@H]1NC(=O)[C@H](CC(C)C)N(C)C(=O)C[C@@H](C(=O)N2CCCCC2)N(C)C(=O)[C@H](C2CC2)N(C)C(=O)C2(CCCC2)NC(=O)[C@@H]2CCCN2C(=O)[C@H](CCc2ccc(C(F)(F)F)c(Cl)c2)NC(=O)CN(C)C(=O)[C@H](CC2CCCCC2)N(C)C(=O)CN(C)C(=O)CN(C)C1=O [Compound 197] ([NMeL]I[Sar][Sar][NMeCha][Sar][hPhe(3-Cl-4-CF3)]P[Ac5c][NMeGly(cPr)][NMeD]-Piperidide; lactam N-11)
The IC50 of the first is 6-fold higher: 41 nM for the first, 6.8 nM for the second. The second is the more potent here.

With `CC[C@H](C)[C@@H]1NC(=O)[C@H](C)N(C)C(=O)C[C@@H](C)NC(=O)[C@H](C2CCCC2)N(C)C(=O)C2(CCCC2)NC(=O)[C@@H]2CCCN2C(=O)[C@H](CCc2ccc(C(F)(F)F)c(Cl)c2)NC(=O)[C@@H](C)N(C)C(=O)[C@H](Cc2ccccc2)N(C)C(=O)[C@@H]2CCN2C(=O)[C@H](C)N(C)C1=O` [Compound 671] (cyclo([Ac5c][NMeGly(cPent)][d(β3hA)][NMeA]I[NMeA][Aze][NMeF][dNMeA][hPhe(3-Cl-4-CF3)]P)) the IC50 was 52 nM.
